Test results taken from US9578878B2, “Antimicrobial efficacy of an oregano oil and caprylic acid blend” (Kemin Industries, Inc., priority 2014, dated 2017).

Experiments:
Type in all cases: cell-based
[1] = test system: Candida albicans (ATCC #10231); assay: Microtiter assay, MIC to inhibit 90% growth; settings: 24 hours, n = 3
Description: (§1) For assays to find minimum inhibitory concentrations, all treatments were diluted in 10% DMSO and 0.5% Tween 80 to stabilize the samples.
(§2) Microorganisms Escherichia coli (ATCC #8739), Streptococcus sanguinis (ATCC #BAA-1455), Salmonella enteria subsp. enterica (ex Kauffmann and Edwards) Le Minor and Popoff serovar Typhimurium (ATCC #14028), Staphylococcus aureus (ATCC #6538), Pseudomonas aeruginosa (ATCC #9027), and Candida albicans (ATCC #10231) were obtained from a −80° C. internal stock culture. Aspergillus brasiliensis (ATCC #16404) was obtained from an internal stock solution culture stored at 4° C. E. coli, S. enterica S. aureus, and P. aeruginosa were grown in tryptic soy broth (TSB) and incubated at 37° C. for 24 h. S. sanguinis was grown in brain heart infusion broth (BHI). A. brasiliensis was plated on Sabourand dextrose agar (SDA) and incubated at 25° C. for 5-7 days. C. albicans was grown in Sabourand dextrose broth (SDB) and incubated at 25° C. for 48 h.
(§3) A. brasiliensis was harvested by adding 18 mL sterile saline to the plate and agitating the mold from the agar with a sterile inoculating loop. The inoculum was collected upon agitation. All suspended microbes were diluted with the same type of broth media used to grow each organism until an inoculum in the range of 10^6 CFU/mL was achieved. The inoculum concentration was determined by plate count method. Each strain was identified by plating on the appropriate growth media, E. coli, S. aureus, and P. aeruginosa on tryptic soy agar (Bacto, BD Sciences, Manassas, Va.) and C. albicans and A. brasiliensis on Sabrouand dextrose agar, to ensure there was no contamination of the inoculum.
(§4) Microtiter Assay. A microtiter assay was completed E. coli, S. aureus, P. aeruginosa, S. enteria, S. sanguinis, and C. albicans. Briefly, 10^6 cfu/ml preparations of each organism were made and enumerated using a Petroff-Hausser counting chamber. A 100 μl aliquot of the inoculums was dispensed into microtiter plate wells and a 100 μl aliquot of treatment was dispensed into the same wells. Two separate set of wells were prepared as positive and negative controls, with the positive wells containing 100 μl test organism in growth media and 100 μl sterile phosphate buffer and with the negative control wells containing 100 μl of the same growth media and 100 μl sterile phosphate buffer. The plates were incubated overnight at the appropriate temperature for each organism. A plate reader was used to track the kinetic growth curve using 405 nm and […]. The last time point at 24 hours was averaged and used to determine MIC90. Each treatment was conducted in triplicate wells.

[2] = test system: Escherichia coli (ATCC #8739); assay: Microtiter assay, MIC to inhibit 90% growth; settings: 24 hours, n = 3
Description: as §1, §2, §3, §4

[3] = test system: Pseudomonas aeruginosa (ATCC #9027); assay: Microtiter assay, MIC to inhibit 90% growth; settings: 24 hours, n = 3
Description: as §1, §2, §3, §4

Salmonella enterica = assay: Microtiter assay, MIC to inhibit 90% growth; settings: 24 hours, n = 3
Description: as §1, §2, §3, §4

[4] = test system: Staphylococcus aureus (ATCC #6538); assay: Microtiter assay, MIC to inhibit 90% growth; settings: 24 hours, n = 3
Description: as §1, §2, §3, §4

[5] = test system: Streptococcus sanguinis (ATCC #BAA-1455); assay: Microtiter assay, MIC to inhibit 90% growth; settings: 24 hours, n = 3
Description: as §1, §2, §3, §4

[6] = test system: Aspergillus brasiliensis (ATCC #16404); assay: Preservative efficacy testing in cream, Example 2 (Study 1 and 2)
Description: (§5) Oregano essential oil containing 67.8% carvacrol (lot number 628034, thymol was not detectable) was received from Kemin SCI. Caprylic acid was obtained from Fisher Scientific (catalog number AC12939). To make MicroCurb OC, a blend with 10% oregano essential oil and 90% caprylic acid (w/w) was prepared for initial testing. The solution was mixed thoroughly for 10 seconds by a vortex mixer until a clear, homogenous mixture was obtained, resulting in the product MicroCurb OC.
(§6) Creams were prepared aseptically by spraying 70% isopropyl alcohol on all surfaces and glassware. Preservative studies were completed at different times for caprylic acid alone (Study 1) and MicroCurb OC (Study 2). Tables 5 and 6 list the various ingredients and their percentages used in Study 1 and 2, respectively.
(§7) De-ionized water was added to a pre-weighed 250 mL beaker and mixed at 800 rpm using an overhead mixer (Eurostar power-b IKA-WERKE, Wilmington, N.C.) with a 3 blade impeller. Carbomer 940 was slowly added to the center of the mixing water. The mixture was hydrated for 30 minutes while covered with aluminum foil. Glycerin and Lysofix were slowly added to the solution. After solution appeared homogenous, safflower oil, olive oil, and coco caprylate were slowly added to the mixture at 1000 rpm. The solution was mixed for 30 minutes while covered with aluminum foil. Next the pH was measured (around 3.2) and adjusted to 5.5 with a 33.3% sodium hydroxide solution. The mixing speed was increased to 1400 rpm. From time to time, it was necessary to scrape the sides of the beaker with a spatula to ensure that the cream became homogenized. After 5 minutes, the cream was weighed and water was replenished for the mass lost during the processing.
(§8) Microorganisms Escherichia coli (ATCC #8739), Staphylococcus aureus (ATCC #6538), Pseudomonas aeruginosa (ATCC #9027), and Candida albicans (ATCC #10231) were obtained from −80° C. internal stock cultures. Aspergillus brasiliensis (ATCC #16404) was obtained from an internal stock solution stored at 4° C. E. coli, S. aureus, and P. aeruginosa were grown in TSB and incubated at 37° C. for 24 h. A. brasiliensis was plated on SDA and incubated at 25° C. for 5-7 days. C. albicans was grown in SDB and incubated at 25° C. for 48 h.
(§9) Pathogens in broth were harvested by centrifugation (2400 rpm, 20 minutes) and suspended in sterile phosphate buffer. A. brasiliensis was harvested by adding 18 mL sterile phosphate buffer to the plate and agitating the mold from the agar with a sterile inoculating loop. The spores were collected upon agitation. All suspended microbes were diluted with sterile phosphate buffer until a concentration in the range of 10^8 CFU/mL was achieved. The concentration was determined by plate count method. Each strain was identified by plating on the appropriate growth media, E. coli, S. aureus, and P. aeruginosa on TSA and C. albicans and A. brasiliensis on SDA, to ensure there was no contamination of the inoculum.
(§10) Preservative Efficacy Testing. Each tube was inoculated with the standardized microbial suspensions, using a ratio of 1 mL to 10 grams of the product, ensuring that the inoculum after suspension would yield the target level of 6-log CFU/g cream. For every testing time point, the sample was enumerated by sampling 1 g from the original product containers, serial dilution, and streaking plates containing the appropriate growth media to test colonization in duplicate. The inoculated plates were incubated at 25° C. for C. albicans and A. niger and 37° C. for E. coli, S. aureus, and P. aeruginosa. The number of viable microorganisms per gram was calculated via plate count method. The samples were enumerated on day 0, 2, 3, 5, 7, 14, and 28.
(§11) The plate counts obtained each day were averaged for each treatment. The results were shown graphically by the log count of each averaged value per treatment per day. For plates that had no growth, the lowest dilution plated was recorded.

[7] = test system: Candida albicans (ATCC #10231); assay: as above; settings: Study 1, cream with 0.5% or 1.0% caprylic acid, after 2 days
Description: as §5, §6, §7, §8, §9, §10, §11

[8] = test system: Staphylococcus aureus (ATCC #6538); assay: as above; settings: Study 1, cream with 0.5% or 1.0% caprylic acid, after 2 days
Description: as §5, §6, §7, §8, §9, §10, §11

Structure (SMILES): CCCCCCCC(=O)O [Caprylic Acid, octanoic acid]
- Minimum Inhibitory Concentration (MIC) to inhibit 90% growth, C. albicans [1]: 0.09%
- Minimum Inhibitory Concentration (MIC) to inhibit 90% growth, E. coli [2]: 0.27%
- Minimum Inhibitory Concentration (MIC) to inhibit 90% growth, P. aeruginosa [3]: 0.90%
- Minimum Inhibitory Concentration (MIC) to inhibit 90% growth, S. enterica (Salmonella enterica): 0.90%
- Minimum Inhibitory Concentration (MIC) to inhibit 90% growth, S. aureus [4]: 0.09%
- Minimum Inhibitory Concentration (MIC) to inhibit 90% growth, S. sanguinis [5]: 0.09%
- Log reduction of A. brasiliensis ([6]; Study 1, cream with caprylic acid, by the end of the study (28 days)): 2 log
- Ability to reduce the mold in cream ([6]; caprylic acid alone as control): unable to reduce the mold
- Log reduction of C. albicans [7]: 5 log
- Log reduction of S. aureus [8]: 5 log
